Data reported in ChEMBL document CHEMBL3885881, “DrugMatrix”.

Organism: Rattus norvegicus
Test: DrugMatrix - Regimen: Daily Repeat
Assay type: toxicity, organism-based, Sprague-Dawley
Parameters: regimen Daily Repeat, gender Male, age 6-8 weeks
Details: in vivo, po, route oral GAVAGE, vehicle .5 % CMC; for ABSOLUTE BASOPHIL / ABSOLUTE EOSINOPHIL / ABSOLUTE LYMPHOCYTE / ABSOLUTE MONOCYTE / ABSOLUTE SEGMENTED NEUTROPHIL / BASOPHIL / EOSINOPHIL / ERYTHROCYTE COUNT / HEMATOCRIT / HEMOGLOBIN / LEUKOCYTE COUNT / LYMPHOCYTE / MEAN CORPUSCULAR HEMOGLOBIN / MEAN CORPUSCULAR HEMOGLOBIN CONCENTRATION / MEAN CORPUSCULAR VOLUME / MONOCYTE / NEUTROPHIL / NUCLEATED RED BLOOD CELLS / PLATELET COUNT: tissue Blood; for ALANINE AMINOTRANSFERASE / ALBUMIN / ALKALINE PHOSPHATASE / ASPARTATE AMINOTRANSFERASE / BLOOD UREA NITROGEN / CARBON DIOXIDE / CHLORIDE / CHOLESTEROL / CREATINE PHOSPHOKINASE / CREATININE / GLUCOSE / LACTATE DEHYDROGENASE / LIPASE / PHOSPHORUS / POTASSIUM / SODIUM / TOTAL BILIRUBIN / TOTAL PROTEIN / URIC ACID: tissue Plasma
[1] = 0 mg/kg, 72 h, dose level Control, time 3 day
[2] = 0 mg/kg, 120 h, dose level Control, time 5 day
[3] = 100 mg/kg, 72 h, dose level Low, time 3 day

Cl.NC[C@H]1CC[C@H](C(=O)Oc2ccc(CCC(=O)O)cc2)CC1 [CETRAXATE HYDROCHLORIDE]
ABSOLUTE BASOPHIL [1]: 0 CELLS/uL
ABSOLUTE EOSINOPHIL [1]: 284.5 CELLS/uL
ABSOLUTE LYMPHOCYTE [1]: 11670.5 CELLS/uL
ABSOLUTE MONOCYTE [1]: 420.83 CELLS/uL
ABSOLUTE SEGMENTED NEUTROPHIL [1]: 1024.17 CELLS/uL
BASOPHIL [1]: 0%
EOSINOPHIL [1]: 1.67%
ERYTHROCYTE COUNT [1]: 5.38 x10E6/uL
HEMATOCRIT [1]: 34.05%
HEMOGLOBIN [1]: 12.75 G/DL
LEUKOCYTE COUNT [1]: 13.4 x10E3/uL
LYMPHOCYTE [1]: 88.33%
MEAN CORPUSCULAR HEMOGLOBIN [1]: 23.73 pg
MEAN CORPUSCULAR HEMOGLOBIN CONCENTRATION [1]: 37.43 G/DL
MEAN CORPUSCULAR VOLUME [1]: 63.4 fL
MONOCYTE [1]: 2.83%
NEUTROPHIL [1]: 7.17%
NUCLEATED RED BLOOD CELLS [1]: 0 /100WBC
PLATELET COUNT [1]: 1184.67 x10E3/uL
ALANINE AMINOTRANSFERASE [1]: 45.33 u/L
ALBUMIN [1]: 4.3 G/DL
ALKALINE PHOSPHATASE [1]: 388.83 u/L
ASPARTATE AMINOTRANSFERASE [1]: 84.83 u/L
BLOOD UREA NITROGEN [1]: 15.5 mg/dL
CARBON DIOXIDE [1]: 27 mmol/L
CHLORIDE [1]: 101.8 MEQ/L
CHOLESTEROL [1]: 76.67 mg/dL
CREATINE PHOSPHOKINASE [1]: 301 u/L
CREATININE [1]: 0.21 mg/dL
GLUCOSE [1]: 168.83 mg/dL
LACTATE DEHYDROGENASE [1]: 294.83 u/L
LIPASE [1]: 9.8 u/L
PHOSPHORUS [1]: 13.25 mg/dL
POTASSIUM [1]: 6.41 MEQ/L
SODIUM [1]: 143.72 MEQ/L
TOTAL BILIRUBIN [1]: 0.22 mg/dL
TOTAL PROTEIN [1]: 5.98 G/DL
URIC ACID [1]: 1.5 mg/dL
ABSOLUTE BASOPHIL [2]: 0 CELLS/uL
ABSOLUTE EOSINOPHIL [2]: 190.67 CELLS/uL
ABSOLUTE LYMPHOCYTE [2]: 12549.5 CELLS/uL
ABSOLUTE MONOCYTE [2]: 276 CELLS/uL
ABSOLUTE SEGMENTED NEUTROPHIL [2]: 1067.17 CELLS/uL
BASOPHIL [2]: 0%
EOSINOPHIL [2]: 1.33%
ERYTHROCYTE COUNT [2]: 5.66 x10E6/uL
HEMATOCRIT [2]: 35.92%
HEMOGLOBIN [2]: 13.65 G/DL
LEUKOCYTE COUNT [2]: 14.08 x10E3/uL
LYMPHOCYTE [2]: 89%
MEAN CORPUSCULAR HEMOGLOBIN [2]: 24.12 pg
MEAN CORPUSCULAR HEMOGLOBIN CONCENTRATION [2]: 38.03 G/DL
MEAN CORPUSCULAR VOLUME [2]: 63.47 fL
MONOCYTE [2]: 2%
NEUTROPHIL [2]: 7.67%
NUCLEATED RED BLOOD CELLS [2]: 0.17 /100WBC
PLATELET COUNT [2]: 1251.67 x10E3/uL
ALANINE AMINOTRANSFERASE [2]: 43.33 u/L
ALBUMIN [2]: 4.22 G/DL
ALKALINE PHOSPHATASE [2]: 365.67 u/L
ASPARTATE AMINOTRANSFERASE [2]: 83.67 u/L
BLOOD UREA NITROGEN [2]: 18.17 mg/dL
CARBON DIOXIDE [2]: 28.67 mmol/L
CHLORIDE [2]: 103.5 MEQ/L
CHOLESTEROL [2]: 71.5 mg/dL
CREATINE PHOSPHOKINASE [2]: 284.5 u/L
CREATININE [2]: 0.21 mg/dL
GLUCOSE [2]: 161.67 mg/dL
LACTATE DEHYDROGENASE [2]: 259.67 u/L
LIPASE [2]: 9.5 u/L
PHOSPHORUS [2]: 12.45 mg/dL
POTASSIUM [2]: 6.49 MEQ/L
SODIUM [2]: 144.25 MEQ/L
TOTAL BILIRUBIN [2]: 0.2 mg/dL
TOTAL PROTEIN [2]: 6.1 G/DL
URIC ACID [2]: 1.73 mg/dL
ABSOLUTE BASOPHIL [3]: 0 CELLS/uL
ABSOLUTE EOSINOPHIL [3]: 0 CELLS/uL
ABSOLUTE LYMPHOCYTE [3]: 4748 CELLS/uL
ABSOLUTE MONOCYTE [3]: 119.67 CELLS/uL
ABSOLUTE SEGMENTED NEUTROPHIL [3]: 265.67 CELLS/uL
BASOPHIL [3]: 0%
EOSINOPHIL [3]: 0%
ERYTHROCYTE COUNT [3]: 5.52 x10E6/uL
HEMATOCRIT [3]: 36.1%
HEMOGLOBIN [3]: 13.33 G/DL
LEUKOCYTE COUNT [3]: 5.13 x10E3/uL
LYMPHOCYTE [3]: 92.67%
MEAN CORPUSCULAR HEMOGLOBIN [3]: 24.2 pg
MEAN CORPUSCULAR HEMOGLOBIN CONCENTRATION [3]: 36.97 G/DL
MEAN CORPUSCULAR VOLUME [3]: 65.43 fL
MONOCYTE [3]: 2.33%
NEUTROPHIL [3]: 5%
NUCLEATED RED BLOOD CELLS [3]: 0 /100WBC
PLATELET COUNT [3]: 1331 x10E3/uL
ALANINE AMINOTRANSFERASE [3]: 33.33 u/L
ALBUMIN [3]: 4.63 G/DL
ALKALINE PHOSPHATASE [3]: 363 u/L
ASPARTATE AMINOTRANSFERASE [3]: 79 u/L
BLOOD UREA NITROGEN [3]: 15 mg/dL
CARBON DIOXIDE [3]: 25 mmol/L
CHLORIDE [3]: 104 MEQ/L
CHOLESTEROL [3]: 87.33 mg/dL
CREATINE PHOSPHOKINASE [3]: 255.33 u/L
CREATININE [3]: 0.17 mg/dL
GLUCOSE [3]: 163.33 mg/dL
LACTATE DEHYDROGENASE [3]: 159.67 u/L
LIPASE [3]: 10 u/L
PHOSPHORUS [3]: 12.2 mg/dL
POTASSIUM [3]: 6 MEQ/L
SODIUM [3]: 147 MEQ/L
TOTAL BILIRUBIN [3]: 0.13 mg/dL
TOTAL PROTEIN [3]: 6.57 G/DL
URIC ACID [3]: 1.6 mg/dL
